Reference: ChEMBL document CHEMBL5724914, “Linking interpersonal differences in gut microbiota composition and drug biotransformation activity” (2024)

Legend:
[1] = (§1) The drug is tested on WLS-073 corresponding to human gut metagenome with ENA study accession number: PRJEB37062 and ENA sample accession number: ERS12561749 for biotransformation under anaerobic condition. The drug concentrations were measured over 9 timepoints collected between 0 and 24 hours of incubation by liquid-chromatography-coupled mass spectrometry (LC–MS); settings: 2 µM
[2] = human gut metagenome, 24 h, 2 µM
[3] = as §1, with “Z-027” for “WLS-073”, “to” for “to human gut”, “ERS12561826” for “ERS12561749”; settings: 2 µM
[4] = human gut metagenome, 24 h, 2 µM; remark: listed apart in the source
[5] = human gut metagenome, 24 h, 2 µM; remark: listed apart in the source
[6] = human gut metagenome, 24 h, 2 µM; remark: listed apart in the source
[7] = as §1, with “Z-024” for “WLS-073”, “pig” for “human”, “ERS12561823” for “ERS12561749”; settings: 2 µM
[8] = as §1, with “WLS-006” for “WLS-073”, “ERS12561741” for “ERS12561749”; settings: 2 µM
[9] = human gut metagenome, 24 h, 2 µM; remark: listed apart in the source
Note: call rule not given here.

OC(CCN1CCCCC1)(c1ccccc1)C1CCCCC1 (configuration not stated) [TRIHEXYPHENIDYL]
Bacterial Biotransformation [1]: Compound metabolized | Bacterial Biotransformation [2]: Compound metabolized | Bacterial Biotransformation [3]: Compound NOT metabolized | Bacterial Biotransformation [4]: Compound metabolized | Bacterial Biotransformation [5]: Compound metabolized | Bacterial Biotransformation [6]: Compound metabolized | Bacterial Biotransformation [7]: Compound metabolized | Bacterial Biotransformation [8]: Compound metabolized | Bacterial Biotransformation [9]: Compound metabolized

Cc1ccc(/C(=C\CN2CCCC2)c2ccccn2)cc1 [TRIPROLIDINE]
Bacterial Biotransformation [1]: Compound NOT metabolized | Bacterial Biotransformation [2]: Compound NOT metabolized | Bacterial Biotransformation [3]: Compound NOT metabolized | Bacterial Biotransformation [4]: Compound NOT metabolized | Bacterial Biotransformation [5]: Compound NOT metabolized | Bacterial Biotransformation [6]: Compound metabolized | Bacterial Biotransformation [7]: Compound NOT metabolized | Bacterial Biotransformation [8]: Compound metabolized | Bacterial Biotransformation [9]: Compound NOT metabolized

Cc1cn([C@H]2C[C@H](N=[N+]=[N-])[C@@H](CO)O2)c(=O)[nH]c1=O [ZIDOVUDINE]
Bacterial Biotransformation [1]: Compound NOT metabolized | Bacterial Biotransformation [2]: Compound metabolized | Bacterial Biotransformation [3]: Compound metabolized | Bacterial Biotransformation [4]: Compound NOT metabolized | Bacterial Biotransformation [5]: Compound NOT metabolized | Bacterial Biotransformation [6]: Compound NOT metabolized | Bacterial Biotransformation [7]: Compound NOT metabolized | Bacterial Biotransformation [8]: Compound metabolized | Bacterial Biotransformation [9]: Compound NOT metabolized
